The numbers were not newly measured in patent publication US10104888B2, “Tannin-chitosan composites” (WISCONSIN ALUMNI RESEARCH FOUNDATION, priority 2009, dated 2018), which cites them from elsewhere.

For this data set the following is noted: in vivo.

As to “poly(β-(1→4)-2-amino-2-deoxy-D-glucopyranose) [Chitosan]”, the LD50 was more than 16000 mg/kg.

In general, LD50 refers to the dose at which mortality reaches 50%.
